Molecules are shown by their SMILES. Where “and” joins values, the source holds several entries; their conditions need not be identical. Equal values may be shown once.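 A five-concentration, 48-hour dose response in 96-well plates underlies each endpoint, interpolated linearly between surrounding concentrations. Abbreviation: GI50, concentration required for 50% inhibition of growth. TGI is the concentration that stops growth completely.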

Among the test systems are SR leukemia; HCT-116 colon; U251 CNS; T-47D breast; KM20L2 colon; HOP-18 NSCLC; P388/ADR leukemia; DMS 273 small cell lung; SNB-78 CNS; DLD-1 colon.
Common to all, as to assay: NCI tumour cell line growth inhibition, 48 h

On to `CC(=O)O[C@H]1C(=O)[C@]2(C)[C@@H](OC(=O)OCC(O)CO)C[C@H]3OC[C@@]3(OC(C)=O)[C@H]2[C@H](OC(=O)c2ccccc2)[C@]2(O)C[C@H](OC(=O)[C@H](O)[C@@H](NC(=O)c3ccccc3)c3ccccc3)C(C)=C1C2(C)C` (some centres undefined), for which the TGI in the assay with SR leukemia was 15.8 µM; in the assay with HCT-116 colon, more than 38.9 µM; in the assay on U251 CNS it was 15.6 µM.
For `N#Cc1ccc(Nc2nc3nc[nH]c3c(=O)[nH]2)cc1`, the TGI in the assay with SR leukemia, with HCT-116 colon, with T-47D breast and with U251 CNS was more than 100 µM throughout.
`CC(=O)OC1CC2(O)C(CCC3(C)C(c4ccc(=O)oc4)CCC32O)C2(C)CCC(O)C=C12` (centres undefined): the GI50 in the assay with KM20L2 colon was 0.0375 µM; with HCT-116 colon, 0.00498 µM; with HOP-18 NSCLC, 0.0375 µM; with U251 CNS, 0.0375 µM; in the assay on P388/ADR leukemia, 69.5 µM; in the assay on DMS 273 small cell lung, 0.0375 µM. The GI50 in the assay on SNB-78 CNS was 0.0375 µM; in the assay on DLD-1 colon, 0.0152 µM. Moreover, the TGI with KM20L2 colon was 0.191 µM and 0.187 µM; with HCT-116 colon, 0.104 µM and 0.0477 µM; in the assay on HOP-18 NSCLC, 0.075 µM and 0.436 µM; with U251 CNS, 0.151 µM and 0.109 µM; in the assay with P388/ADR leukemia it was 261 µM; with DMS 273 small cell lung, 0.0714 µM and 0.0478 µM. For the same compound, the TGI with SNB-78 CNS was 0.47 µM and 0.0866 µM; with DLD-1 colon it was 0.107 µM and 0.0583 µM.
As for `CC(C)(C)CC(C)(C)Cc1ccc(OCCOCC[N+](C)(C)Cc2ccccc2)cc1`, in the assay with T-47D breast, the GI50 was 1.41 µM and the TGI is 3.94 µM. In the assay on U251 CNS, the GI50 was 1.56 µM and the TGI came out at 3.08 µM.
As for `COc1cccc2c1C(=O)c1c(O)c3c(c(O)c1C2=O)C[C@@](O)(C(C)=O)C[C@@H]3OC1CC(N)C(O)C(C)O1` (some centres undefined), the TGI in the assay on KM20L2 colon was 2.86 µM and 1.45 µM and > 5.01 µM; in the assay with SR leukemia, 0.239 µM and 0.908 µM; in the assay on P388/ADR leukemia, 9.87 µM; with SNB-78 CNS, 2.49 µM and 3.43 µM; with DLD-1 colon, 5.53 µM and 6.33 µM and > 5.01 µM. Also, the GI50 was less than 0.0135 µM in the assay with HCT-116 colon; less than 0.0176 µM in the assay on T-47D breast; more than 5.01 µM in the assay on HOP-18 NSCLC; less than 0.0145 µM in the assay on U251 CNS; 0.184 µM in the assay on SNB-78 CNS; more than 5.01 µM with DLD-1 colon.
For the compound `Cc1c2cc[n+](C)cc2c(COC2OC(CO)C(O)C2O)c2c3ccccc3n(C)c12` (centres undefined), the TGI with KM20L2 colon, with HCT-116 colon, in the assay with HOP-18 NSCLC, with U251 CNS, with P388/ADR leukemia and with DMS 273 small cell lung was more than 100 µM in each case. Further, the TGI in the assay on SNB-78 CNS and in the assay on DLD-1 colon was more than 100 µM in each case.
In the case of `Cc1c2cc[n+](C)cc2c(C)c2c1[nH]c1ccc(O)cc12`, the TGI in the assay on KM20L2 colon was more than 100 µM; in the assay with HCT-116 colon it was more than 91.6 µM; in the assay on T-47D breast it was 11 µM; in the assay with HOP-18 NSCLC, more than 94.5 µM; with U251 CNS, 25 µM; in the assay on P388/ADR leukemia it was more than 77.4 µM. In addition, the TGI in the assay with DMS 273 small cell lung is more than 78.6 µM; in the assay with SNB-78 CNS, more than 100 µM; in the assay with DLD-1 colon, more than 100 µM.
In the case of `CCP(=O)(CC)C(Cl)(Cl)C(=O)NC`, the TGI with SR leukemia, in the assay on HCT-116 colon, in the assay on T-47D breast and in the assay with U251 CNS was more than 100 µM each time.

Values taken from PubChem BioAssay (NCI).
